From paper PMC8146408 (Viruses, 2021)
Values after ≈ are worked out from the molar mass of the structure shown.

Key:
Cytotoxicity assay (XTT) = assay type: cell-based; conditions: human, HepG2 cells, XTT; mean ± SD, at least two independent experiments; read-out: CC50 (concentration of a compound causing 50% cytotoxicity)
HBV replication = experiment: Antiviral assay (HBV replication luciferase reporter in HuH-7 cells); assay type: cell-based, Hepatitis B virus; conditions: mean ± SD, at least two independent experiments
HepG2 cells = experiment: Cytotoxicity assay (XTT); assay type: cell-based; conditions: for Concentration without cytotoxicity: cytotoxicity assay
[1] = Aqueous solubility (thermodynamic, DPBS); assay type: physicochemical; conditions: Dulbecco's Phosphate-Buffered Saline (DPBS), aqueous buffer, thermodynamic from solid, pH 7.2, n = 3
[2] = Plasma stability, human plasma; assay type: in vitro ADME; conditions: pH 7.4, n = 3, read-out: Plasma Stability t1/2
[3] = Plasma stability, mouse plasma; assay type: in vitro ADME; conditions: CD-1, pH 7.4, n = 3, read-out: Plasma Stability t1/2
[4] = Microsomal stability, human liver microsomes; assay type: in vitro ADME; conditions: pH 7.4, cofactor NADPH, n = 3, read-out: Microsomal Stability t1/2
[5] = Microsomal stability, mouse liver microsomes; assay type: in vitro ADME; conditions: pH 7.4, cofactor NADPH, n = 3, read-out: Microsomal Stability t1/2
HBV Cp (C150 dimer) = biological target: T1, HBV Cp (C150 dimer) (Hepatitis B virus genotype D subtype adw, UniProt P03147, R150C); experiment: Thermal shift assay (TSA); assay type: binding; conditions: 20 µM compound, 1% DMSO
T1 construct: made in house; host or cells: E. coli BL21 (DE3), pET11a
T1 sequence (P03147 1-150 R150C): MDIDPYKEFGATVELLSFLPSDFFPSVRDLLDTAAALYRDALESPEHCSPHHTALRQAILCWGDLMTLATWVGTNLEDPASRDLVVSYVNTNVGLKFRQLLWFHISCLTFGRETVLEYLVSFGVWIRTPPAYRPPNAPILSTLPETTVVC

`Cc1cc(NC(=O)c2cc(C#N)c(=O)[nH]c2C)ccc1F` [ZW-1840] showed a CC50 (Cytotoxicity assay (XTT)) greater than 100 µM.

For `Cc1cc(NC(=O)c2cnc3nc4ccccc4n3c2C)ccc1F` [ZW-1841], the “EC50 (concentration of a compound inhibiting HBV replication by 50%)” value (HBV replication) was “single-digit”, the CC50 (Cytotoxicity assay (XTT)) was greater than 100 µM and the Concentration without cytotoxicity (HepG2 cells) was no less than 100 µM. The solubility at 72 h [1] was 0.31 ± 0.03 µM (≈ 0.104 µg/mL), the half-life at 1 µM [2] was greater than 6 h and the half-life at 1 µM [3] was greater than 6 h. The half-life at 1 µM [4] was greater than 2 h, the half-life at 1 µM [5] was 0.543 ± 0.0267 h and the “TSA profile (effect on HBV Cp melting curve)” value (“TSA profile” below) (HBV Cp (C150 dimer)) was “bind to HBV Cp and affect capsid formation and stability”.

In the case of `Cc1cn2c(C)c(C(=O)Nc3ccc(F)c(C)c3)cnc2n1` [ZW-1842], the CC50 (Cytotoxicity assay (XTT)) is reported as greater than 100 µM.

Work on `CC1=C(C(=O)Nc2ccc(F)c(C)c2)C=Nc2ccccc2N1` [ZW-1843] yielded a CC50 (Cytotoxicity assay (XTT)) greater than 100 µM.

For `CSc1c(C(=O)Nc2ccc(F)c(C)c2)c(C)[nH]c(=O)c1C#N` [ZW-1845], the CC50 (Cytotoxicity assay (XTT)) was greater than 100 µM.

With `Cc1cc(NC(=O)c2c(C)[nH]c(=O)c3c(N)n[nH]c23)ccc1F` [ZW-1847] the “EC50 (concentration of a compound inhibiting HBV replication by 50%)” value (HBV replication) was “single-digit”, the CC50 (Cytotoxicity assay (XTT)) was greater than 100 µM and the Concentration without cytotoxicity (HepG2 cells) was no less than 100 µM. For the same molecule, the solubility at 72 h [1] was 2.14 ± 0.03 µM (≈ 0.675 µg/mL), the half-life at 1 µM [2] was greater than 6 h and the half-life at 1 µM [3] was greater than 6 h. For the same molecule, the half-life at 1 µM [4] was greater than 2 h, the half-life at 1 µM [5] was greater than 2 h and the “TSA profile” value (HBV Cp (C150 dimer)) was “bind to HBV Cp and affect capsid formation and stability”.

In the case of `CC1Oc2c(cccc2C(=O)Nc2cccc(C(F)F)c2)NC1=O` (centres unmarked) [ZW-1888], the CC50 (Cytotoxicity assay (XTT)) is reported as 47 µM, the CC50 (HepG2 cells; HepG2 cells, XTT, mean ± SD, at least two independent experiments, read-out: CC50 (concentration of a compound causing 50% cytotoxicity)) is reported as 46.6 ± 2.4 µM and the “TSA profile” value (HBV Cp (C150 dimer)) is reported as “bind to HBV Cp and affect capsid formation and stability”.

`O=C1NC2(CCCC2)C(=O)N1Cc1cn(-c2ccccc2)nc1-c1ccccc1` [ZW-1889] showed a CC50 (Cytotoxicity assay (XTT)) of 58.2 ± 5.6 µM.

`Cc1cc(C)c(CNC(=O)c2cn(Cc3ccccc3)nc2-c2ccccc2)c(=O)[nH]1` [ZW-1918] gave a CC50 (Cytotoxicity assay (XTT)) of 47.6 ± 0.2 µM.

`COc1cccc(N2CC(C(=O)Nc3cccc(Cl)c3C)CC2=O)c1` (centres unmarked) [ZW-1929] gave a CC50 (Cytotoxicity assay (XTT)) of 41.3 ± 1.7 µM.

For `Cc1cccc(NC(=O)c2cccc(CN3C(=O)CNC3=O)c2)c1` [ZW-1946], the CC50 (Cytotoxicity assay (XTT)) was 44.1 ± 0.6 µM.
